Data as given in PMC3509132, “Global Epigenetic Changes Induced by SWI2/SNF2 Inhibitors Characterize Neomycin-Resistant Mammalian Cells” (PLoS ONE, 2012).
Where two headings read alike, the source gives them in different places.

Key:
MAD28 = target: T1, MAD28 (UniProt Q9TTA5); experiment: intrinsic tryptophan fluorescence quenching; conditions: Fluorescence at 25 C (Cary-Varian spectrofluorimeter); buffer, salt and pH not given (as in ref 13)
T1 sequence (Q9TTA5 whole entry, looked up): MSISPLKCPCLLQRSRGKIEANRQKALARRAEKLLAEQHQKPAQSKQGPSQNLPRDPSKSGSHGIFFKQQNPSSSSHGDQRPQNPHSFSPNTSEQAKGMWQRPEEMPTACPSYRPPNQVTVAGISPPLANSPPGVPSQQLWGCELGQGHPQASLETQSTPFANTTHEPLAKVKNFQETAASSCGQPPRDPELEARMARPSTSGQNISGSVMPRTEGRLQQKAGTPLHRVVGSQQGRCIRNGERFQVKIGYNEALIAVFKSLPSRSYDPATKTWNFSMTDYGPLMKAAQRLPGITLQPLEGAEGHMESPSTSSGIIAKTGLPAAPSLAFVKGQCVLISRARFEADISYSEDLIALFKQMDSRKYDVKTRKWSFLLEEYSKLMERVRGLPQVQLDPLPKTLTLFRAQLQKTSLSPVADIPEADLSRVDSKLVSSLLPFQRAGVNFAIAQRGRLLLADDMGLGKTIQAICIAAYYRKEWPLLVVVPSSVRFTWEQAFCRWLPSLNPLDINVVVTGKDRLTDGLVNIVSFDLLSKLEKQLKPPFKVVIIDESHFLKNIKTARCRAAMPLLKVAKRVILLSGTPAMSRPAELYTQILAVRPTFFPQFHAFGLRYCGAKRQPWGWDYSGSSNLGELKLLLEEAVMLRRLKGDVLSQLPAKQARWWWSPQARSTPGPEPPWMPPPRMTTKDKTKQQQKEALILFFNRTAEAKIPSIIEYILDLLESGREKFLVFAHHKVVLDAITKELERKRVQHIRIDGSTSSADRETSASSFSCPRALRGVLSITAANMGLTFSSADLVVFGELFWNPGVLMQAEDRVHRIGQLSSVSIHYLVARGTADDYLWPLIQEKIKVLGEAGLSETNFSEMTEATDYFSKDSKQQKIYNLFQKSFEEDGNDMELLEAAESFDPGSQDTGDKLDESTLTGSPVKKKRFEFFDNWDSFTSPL

[1] = target: T2, His-ADAAD (Active DNA-dependent ATPase A Domain) (UniProt Q9TTA5); experiment: intrinsic tryptophan fluorescence quenching; conditions: Fluorescence at 25 C (Cary-Varian spectrofluorimeter), buffer, salt and pH not given (as in ref 13)
T2 sequence (Q9TTA5 whole entry, looked up): T1 sequence (Q9TTA5 whole entry, looked up)

MAD47 = target: T3, MAD47 (UniProt Q9TTA5); experiment: intrinsic tryptophan fluorescence quenching; conditions: Fluorescence at 25 C (Cary-Varian spectrofluorimeter); buffer, salt and pH not given (as in ref 13)
T3 sequence (Q9TTA5 whole entry, looked up): T1 sequence (Q9TTA5 whole entry, looked up)

MAD33 = target: T4, MAD33 (UniProt Q9TTA5); experiment: intrinsic tryptophan fluorescence quenching; conditions: Fluorescence at 25 C (Cary-Varian spectrofluorimeter); buffer, salt and pH not given (as in ref 13)
T4 sequence (Q9TTA5 whole entry, looked up): T1 sequence (Q9TTA5 whole entry, looked up)

MAD8 = target: T5, MAD8 (UniProt Q9TTA5); experiment: intrinsic tryptophan fluorescence quenching; conditions: Fluorescence at 25 C (Cary-Varian spectrofluorimeter); buffer, salt and pH not given (as in ref 13)
T5 sequence (Q9TTA5 whole entry, looked up): T1 sequence (Q9TTA5 whole entry, looked up)

MAD53 = target: T6, MAD53 (UniProt Q9TTA5); experiment: intrinsic tryptophan fluorescence quenching; conditions: Fluorescence at 25 C (Cary-Varian spectrofluorimeter); buffer, salt and pH not given (as in ref 13)
T6 sequence (Q9TTA5 whole entry, looked up): T1 sequence (Q9TTA5 whole entry, looked up)

ADAAD [2] = target: T7, ADAAD (Bos taurus, UniProt Q9TTA5); conditions: ADAAD alone; His-ADAAD; ref Nongkhlaw et al. (Nongkhlaw, 2009); cited from earlier work
T7 sequence (Q9TTA5 229-940 limits assumed): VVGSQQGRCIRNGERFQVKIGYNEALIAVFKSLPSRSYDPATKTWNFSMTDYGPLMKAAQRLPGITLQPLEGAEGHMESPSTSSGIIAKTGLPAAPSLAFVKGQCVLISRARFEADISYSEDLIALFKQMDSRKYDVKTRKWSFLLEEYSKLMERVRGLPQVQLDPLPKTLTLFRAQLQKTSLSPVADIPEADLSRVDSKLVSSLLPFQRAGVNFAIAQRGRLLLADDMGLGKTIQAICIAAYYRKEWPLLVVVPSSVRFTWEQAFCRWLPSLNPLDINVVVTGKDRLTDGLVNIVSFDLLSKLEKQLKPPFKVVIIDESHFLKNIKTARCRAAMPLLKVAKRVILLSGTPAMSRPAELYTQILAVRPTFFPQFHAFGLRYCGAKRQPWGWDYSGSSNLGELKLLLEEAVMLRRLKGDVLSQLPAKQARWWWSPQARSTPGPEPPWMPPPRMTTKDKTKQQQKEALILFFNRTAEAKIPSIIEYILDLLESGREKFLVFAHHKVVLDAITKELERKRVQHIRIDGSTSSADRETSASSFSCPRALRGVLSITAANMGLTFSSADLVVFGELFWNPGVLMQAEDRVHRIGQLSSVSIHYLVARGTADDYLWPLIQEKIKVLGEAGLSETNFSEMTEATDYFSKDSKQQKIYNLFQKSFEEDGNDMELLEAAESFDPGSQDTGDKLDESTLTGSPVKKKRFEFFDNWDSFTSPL

ADAAD [3] = target: T7, ADAAD; experiment: Intrinsic tryptophan fluorescence quenching binding titration with His-ADAAD
Method: (§1) His-ADAAD, used for binding studies, was purified as described previously. For mapping and CD studies, ADAAD as well as deletion constructs were expressed as GST-fusion protein in BL21 (DE3) cells and purified as described previously. In case of deletion constructs the GST-tag was not cleaved as the resultant proteins were not stable.
(§2) Fluorescence was measured at 25°C using Cary-Varian spectrofluorimeter as described previously. Stem-loop DNA (5′- […]-3′), synthesized by Sigma-Aldrich, was used in these studies. The intrinsic fluorescence quenching data obtained with acrylamide was analyzed using Stern-Volmer plots as described previously, [14].
To understand the interaction of ADAADi with ADAAD, a member of the SWI2/SNF2 family, we synthesized ADAADi using kanamycin and neomycin. These derivatives, ADAADiK and ADAADiN respectively, were purified and titrated with protein while monitoring the quenching of the intrinsic tryptophan fluorescence. […] This binding constant was same as that in the absence of ATP and slDNA. A similar result was obtained with ADAADiK (Figure S3A and S3B; Table 1). We thus conclude that the interaction of the inhibitor with ADAAD is independent of these two ligands.

[4] = target: T8, MAD8 (ADAAD deletion construct; motif Ia) (Bos taurus, UniProt Q9TTA5); experiment: Fluorescence binding titration, deletion construct MAD8; conditions: GST fusion
T8 sequence (Q9TTA5 465-535): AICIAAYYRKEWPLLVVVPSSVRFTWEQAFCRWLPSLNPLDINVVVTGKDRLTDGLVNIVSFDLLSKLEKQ
Method: as §1, §2

[5] = target: T9, MAD 33 (ADAAD deletion construct; motifs Q, I, Ia) (Bos taurus, UniProt Q9TTA5); experiment: Fluorescence binding titration, deletion construct MAD33; conditions: GST fusion
T9 sequence (Q9TTA5 211-507): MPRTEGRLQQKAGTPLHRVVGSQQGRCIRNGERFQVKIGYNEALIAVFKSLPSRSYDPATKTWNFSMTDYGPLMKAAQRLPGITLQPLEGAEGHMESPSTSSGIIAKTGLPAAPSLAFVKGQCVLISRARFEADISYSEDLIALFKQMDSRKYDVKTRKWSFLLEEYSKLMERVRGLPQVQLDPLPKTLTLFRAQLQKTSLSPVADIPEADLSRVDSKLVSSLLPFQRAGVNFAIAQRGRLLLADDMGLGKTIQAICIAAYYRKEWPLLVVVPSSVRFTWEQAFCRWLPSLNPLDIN
Method: as §1, §2
(§3) ADAAD contains the conserved helicase motifs (Table 2). Three deletion constructs of ADAAD-MAD47, MAD33, and MAD53-lacking DNA-dependent ATPase activity were used to delineate the interaction region (Table 2). The Kd values for the interaction of ADAADiN with MAD47 and MAD 33 were similar to that of wild type leading to the conclusion that motifs Q, I, and Ia are sufficient for the ADAADi-ADAAD interaction. In contrast, these three motifs are not sufficient for the slDNA-ADAAD interaction (Table 2). […]

[6] = target: T10, MAD 53 (ADAAD deletion construct; motifs Ia, II, III, IV, V, VI) (Bos taurus, UniProt Q9TTA5); experiment: Fluorescence binding titration, deletion construct MAD53; conditions: GST fusion
T10 sequence (Q9TTA5 465-940): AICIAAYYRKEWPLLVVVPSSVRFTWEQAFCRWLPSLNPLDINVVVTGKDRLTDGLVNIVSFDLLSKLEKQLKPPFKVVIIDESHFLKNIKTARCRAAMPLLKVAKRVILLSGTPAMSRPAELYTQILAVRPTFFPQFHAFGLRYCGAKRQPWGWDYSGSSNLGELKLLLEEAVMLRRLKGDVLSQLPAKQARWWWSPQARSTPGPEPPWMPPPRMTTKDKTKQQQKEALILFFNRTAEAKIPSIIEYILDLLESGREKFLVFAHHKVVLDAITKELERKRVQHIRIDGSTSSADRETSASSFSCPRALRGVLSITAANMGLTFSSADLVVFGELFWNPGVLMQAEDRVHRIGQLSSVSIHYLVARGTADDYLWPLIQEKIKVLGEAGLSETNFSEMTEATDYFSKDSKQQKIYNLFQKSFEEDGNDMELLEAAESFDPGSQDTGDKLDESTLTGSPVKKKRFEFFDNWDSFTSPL
Method: as §1, §2, §3

[7] = test system: MAD28 (ADAAD deletion construct; motifs Q, I); experiment: Fluorescence binding titration, deletion construct MAD28; conditions: GST fusion
Method: as §1, §2

[8] = target: T11, MAD 47 (ADAAD deletion construct; motifs Q, I, Ia, II, III) (Bos taurus, UniProt Q9TTA5); experiment: Fluorescence binding titration, deletion construct MAD47
T11 sequence (Q9TTA5 211-635): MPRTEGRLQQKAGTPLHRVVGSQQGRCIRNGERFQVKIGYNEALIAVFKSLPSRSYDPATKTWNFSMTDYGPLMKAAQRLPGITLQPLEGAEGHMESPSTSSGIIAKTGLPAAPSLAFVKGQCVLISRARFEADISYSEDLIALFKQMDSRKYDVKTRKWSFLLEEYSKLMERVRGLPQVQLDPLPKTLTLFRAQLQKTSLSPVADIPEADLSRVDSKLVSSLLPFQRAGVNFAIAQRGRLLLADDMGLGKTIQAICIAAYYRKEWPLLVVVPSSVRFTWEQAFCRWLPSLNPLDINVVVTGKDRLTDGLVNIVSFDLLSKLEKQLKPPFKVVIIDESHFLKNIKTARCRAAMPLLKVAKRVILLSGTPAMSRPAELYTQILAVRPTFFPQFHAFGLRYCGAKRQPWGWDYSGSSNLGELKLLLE
Method: as §1, §2, §3

[9] = target: T12, ADAAD wild type (GST cleaved) (UniProt Q9TTA5 229-940); experiment: intrinsic tryptophan fluorescence quenching; Fluorescence at 25 C (Cary-Varian spectrofluorimeter); buffer, salt and pH not given (as in ref 13); conditions: protein: recombinant; tags: none (GST removed with PreScission); hairpin
T12 sequence: T7 sequence (Q9TTA5 229-940 limits assumed)

GCGCAATTGCGCTCGACGATTTTTTAGCGCAATTGCGC [slDNA (stem-loop DNA)]
Kd (MAD28): 22.1 nM
Kd ([1]; 2 uM ADAADiK): 0.46 nM
Kd ([1]; 2 uM ADAADiN (saturating inhibitor)): 0.63 nM
Kd (MAD47): 6.5 nM
Kd (MAD33): 41.5 nM
Kd (MAD8): 8.7 nM
Kd (MAD53): 8.2 nM

slDNA: Stem-loop DNA (5′- GCGCAATTGCGCTCGACGATTTTTTAGCGCAATTGCGC-3′), a well-characterized DNA effector of ADAAD (DNA, backbone and methylation of C not given here; stem-loop DNA)
Kd (ADAAD [2]): 19.9 nM
Kd (ADAAD [3]; ADAAD + ADAADiK (2 μM ADAADiK), His-ADAAD, read-out: Kd): 0.46 nM
Kd (ADAAD [3]; ADAAD + ADAADiN (saturated with 2 μM ADAADiN), His-ADAAD, read-out: Kd): 0.63 nM
Kd [4]: 8.7 nM
Kd [5]: 41.5 nM
Kd [6]: 8.2 nM
Kd [7]: 22.1 nM
Kd [8]: 6.5 nM

Nc1ncnc2c1ncn2[C@@H]1O[C@H](COP(=O)(O)OP(=O)(O)OP(=O)(O)O)[C@@H](O)[C@H]1O [ATP]
Kd (ADAAD [2]): 1600 nM
Kd (ADAAD [3]): 100 ± 3 nM
fold higher affinity than in the absence of the inhibitor (ADAAD [3]; in the presence of ADAADiK): 10 fold
fold higher affinity than in the absence of the inhibitor (ADAAD [3]; in the presence of ADAADiN): 10 fold

GCGCAATTGCGCTCGACGATTTTTTAGCGCAATTGCGC (structured_DNA) [slDNA (stem-loop DNA)]
Kd [9]: 3.8 ± 1.1 nM
